Structures can show the parent of a compound that is named as a salt.
| melting point | Structure (SMILES) |
| --- | --- |
| 290 to 291.5 °C | Cl.O=S(=O)(c1ccccc1)c1ccc2[nH]c3c(c2c1)CCNCC3 |
| > 300 °C | Cl.Cn1c2c(c3cc(S(=O)(=O)c4ccccc4)ccc31)CCNCC2 |
| 320 °C (dec.) | Cl.O=S(=O)(c1ccc(F)c(F)c1)c1ccc2[nH]c3c(c2c1)CCNCC3 |
| 313 to 315 °C (dec.) | Cl.O=S(=O)(c1cc(F)cc(F)c1)c1ccc2[nH]c3c(c2c1)CCNCC3 |
| 337 to 340 °C (dec.) | Cl.Cn1c2c(c3cc(S(=O)(=O)c4cc(F)cc(F)c4)ccc31)CCNCC2 |
| 150 °C (dec.) | CN1CCc2[nH]c3ccc(S(=O)(=O)c4ccccc4)cc3c2CC1 |
| 232 to 235 °C (dec.) | COc1cccc(S(=O)(=O)c2ccc3[nH]c4c(c3c2)CCNCC4)c1.Cl |
| 278 to 279 °C (dec.) | Cl.O=S(=O)(c1ccc(C(F)(F)F)cc1)c1ccc2[nH]c3c(c2c1)CCNCC3 |
| 227 to 233 °C (dec.) | CCn1c2c(c3cc(S(=O)(=O)c4ccc(F)cc4)ccc31)CCNCC2.Cl |
| 285 to 287 °C (dec.) | Cn1c2c(c3cc(S(=O)(=O)c4ccc(OCCO)cc4)ccc31)CCNCC2 (as salt: hydrochloride) [Example 17, 9-[(4-(2-Hydroxyethoxy)phenyl)sulfonyl]-6-methyl-1,2,3,4,5,6-hexahydroazepino[4,5-b]indole hydrochloride] |
| 168 °C (dec.) | O=S(=O)(c1ccc(F)cc1)c1ccc2[nH]c3c(c2c1)CCNCC3 [Example 2, 9-[(4-Fluorophenyl)sulfonyl]-1,2,3,4,5,6-hexahydroazepino[4,5-b]indole] |
| 125 °C (dec.) | Cc1ccc(S(=O)(=O)c2ccc3[nH]c4c(c3c2)CCNCC4)cc1 [Example 3, 9-[(4-Methylphenyl)sulfonyl]-1,2,3,4,5,6-hexahydroazepino[4,5-b]indole] |
| 139 °C (dec.) | COc1ccc(S(=O)(=O)c2ccc3[nH]c4c(c3c2)CCNCC4)cc1 [Example 4, 9-[(4-Methoxyphenyl)sulfonyl]-1,2,3,4,5,6-hexahydroazepino[4,5-b]indole] |
| 153 to 156 °C | O=S(=O)(c1cccc(F)c1)c1ccc2[nH]c3c(c2c1)CCNCC3 [Example 5, 9-[(3-Fluorophenyl)sulfonyl]-1,2,3,4,5,6-hexahydroazepino[4,5-b]indole] |
| 224 °C (dec.) | CCn1c2c(c3cc(S(=O)(=O)c4ccccc4)ccc31)CCNCC2 [Example 8, 6-Ethyl-9-(phenylsulfonyl)-1,2,3,4,5,6-hexahydroazepino[4,5-b]indole] |
| 283 to 286 °C | CN1CCc2c(n(C)c3ccc(S(=O)(=O)c4ccccc4)cc23)CC1 [Example 18, 3,6-Dimethyl-9-(phenylsulfonyl)-1,2,3,4,5,6-hexahydroazepino[4,5-b]indole] |
| 282 to 283 °C (dec.) | CC(C)N1CCc2c(n(C)c3ccc(S(=O)(=O)c4ccc(F)cc4)cc23)CC1 [Example 20, 9-[(4-fluorophenyl)sulfonyl]-3-isopropyl-6-methyl-1,2,3,4,5,6-hexahydroazepino[4,5-b]indole] |
